# Paper PMC9828244, “Molecular and functional characterization of an evolutionarily conserved CREB‐binding protein in the Lymnaea CNS” (The FASEB Journal, 2022)
# Molecular target: T1, LymCBP HAT domain (Lymnaea stagnalis, UniProt E2QC33)
# T1 construct: HAT (catalytic) domain, R1240 to K1641 of LymCBP, His6-tag, pET28a(+), expressed in E. coli Rosetta-gami 2(DE3); cDNA from Lymnaea CNS; Ni-NTA and cation exchange
# Assay: autoradiography of […]-acetylated histone H1 after SDS-PAGE
# Format: biochemical
# Details: pH 8.0, 30 °C, 4 h
# [1] = 50 uM inhibitor, calf thymus histone H1, [14C]-acetyl-CoA
# T1 sequence (E2QC33 entry or part of it): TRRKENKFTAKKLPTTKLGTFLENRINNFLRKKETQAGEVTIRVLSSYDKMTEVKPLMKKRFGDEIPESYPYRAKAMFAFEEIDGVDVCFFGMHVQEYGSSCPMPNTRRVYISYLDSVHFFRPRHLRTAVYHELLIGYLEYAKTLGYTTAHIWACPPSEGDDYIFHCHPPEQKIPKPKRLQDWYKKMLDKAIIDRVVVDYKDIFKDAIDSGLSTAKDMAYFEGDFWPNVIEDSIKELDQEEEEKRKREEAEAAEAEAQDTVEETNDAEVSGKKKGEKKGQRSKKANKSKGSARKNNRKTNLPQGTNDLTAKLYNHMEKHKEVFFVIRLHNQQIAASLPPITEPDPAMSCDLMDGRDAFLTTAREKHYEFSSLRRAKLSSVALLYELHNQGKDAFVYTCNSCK
Compound,autoradiography of [14C]-acetylated histone H1 after SDS-PAGE [1],"autoradiography of [14C]-acetylated histone H1 after SDS-PAGE (calf thymus histone H1 as acetyl acceptor, no inhibitor, labelled compound)"
CCCCCCCCCCCCCCCc1cccc(O)c1C(=O)O [anacardic acid],"In the presence of HAT inhibitors in the incubation solution, however, H1 acetylation signals were eliminated",
CC(=O)SCCNC(=O)CCNC(=O)[C@H](O)C(C)(C)COP(=O)(O)OP(=O)(O)OC[C@H]1O[C@@H](n2cnc3c(N)ncnc32)[C@H](O)[C@@H]1OP(=O)(O)O [[14C]-acetyl-CoA],,"in the absence of HAT inhibitors in the incubation solution, LymCBP acetylated histone H1"
C=C(C)[C@@H](CC=C(C)C)C[C@@]12C[C@@H](CC=C(C)C)C(C)(C)[C@@](CC=C(C)C)(C(=O)C(=C(O)c3ccc(O)c(O)c3)C1=O)C2=O [garcinol],"In the presence of HAT inhibitors in the incubation solution, however, H1 acetylation signals were eliminated",
COc1cc(/C=C/C(=O)CC(=O)/C=C/c2ccc(O)c(OC)c2)ccc1O [curcumin],"In the presence of HAT inhibitors in the incubation solution, however, H1 acetylation signals were eliminated",
